Experimental data as given in patent US10670605B2, “Cysteine reactive probes and uses thereof” (The Scripps Research Institute, priority 2015, dated 2020).
Each block holds one molecule with its values, some of them ahead of it.

How the values were obtained:
Assay in all cases: Competitive isoTOP-ABPP, cell lysates;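 on isoTOP-ABPP reactivity profile ratio, Q15084 C190: Heavy/light ratio DMSO over fragment-treated so higher means more cysteine engagement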;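 on isoTOP-ABPP reactivity profile ratio, Q99873 C109: Heavy/light ratio DMSO over fragment-treated so higher means more cysteine engagement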
Type in all cases: binding
ACAT1 C126 (P24752) = target: T1, ACAT1 C126 (P24752) (Homo sapiens, UniProt P24752); conditions: for isoTOP-ABPP ratio, P24752_C126: invitro
T1 sequence (P24752 34-427): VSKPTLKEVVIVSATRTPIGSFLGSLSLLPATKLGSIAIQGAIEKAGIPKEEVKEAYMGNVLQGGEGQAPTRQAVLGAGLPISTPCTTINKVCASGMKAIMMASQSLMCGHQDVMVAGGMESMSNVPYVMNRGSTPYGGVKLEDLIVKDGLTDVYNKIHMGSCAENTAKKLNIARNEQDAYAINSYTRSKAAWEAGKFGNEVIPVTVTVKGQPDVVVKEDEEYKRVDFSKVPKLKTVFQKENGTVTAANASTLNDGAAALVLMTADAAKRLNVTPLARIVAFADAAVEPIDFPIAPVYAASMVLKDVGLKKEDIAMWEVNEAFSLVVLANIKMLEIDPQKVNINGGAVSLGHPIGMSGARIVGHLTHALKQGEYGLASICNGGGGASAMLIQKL

ACAT1 C119 (P24752) = target: T2, ACAT1 C119 (P24752) (Homo sapiens, UniProt P24752); conditions: for R value (DMSO/fragment) / isoTOP-ABPP ratio P24752_C119: 500 μM
T2 sequence (P24752 34-427): T1 sequence (P24752 34-427)

PRMT1 C109 (Q99873) = PRMT1 C109 (Q99873) (Homo sapiens, UniProt Q99873); conditions: for R value (DMSO/fragment) / isoTOP-ABPP ratio, Q99873_C109: 500 μM;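 on isoTOP-ABPP reactivity profile ratio, Q99873 C109: Heavy/light ratio DMSO over fragment-treated so higher means more cysteine engagement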
PRMT1 C109 (Q99873), sequence (Q99873 whole entry, the tested form may be a part): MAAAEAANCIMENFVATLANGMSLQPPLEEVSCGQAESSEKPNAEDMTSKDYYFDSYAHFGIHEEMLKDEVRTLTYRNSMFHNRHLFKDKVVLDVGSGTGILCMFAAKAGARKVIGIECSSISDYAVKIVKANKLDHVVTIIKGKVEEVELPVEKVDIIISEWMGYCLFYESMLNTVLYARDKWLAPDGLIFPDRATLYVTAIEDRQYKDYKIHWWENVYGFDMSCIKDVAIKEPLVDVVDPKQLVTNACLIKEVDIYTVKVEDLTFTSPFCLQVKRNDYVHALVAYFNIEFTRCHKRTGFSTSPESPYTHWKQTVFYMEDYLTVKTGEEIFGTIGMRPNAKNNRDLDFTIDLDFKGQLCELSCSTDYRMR

PDIA6 C190 (Q15084) = target: T3, PDIA6 C190 (Q15084) (Homo sapiens, UniProt Q15084); conditions: for isoTOP-ABPP ratio (reactivity profile), Q15084_C190: 500 μm in-vitro ramos_231;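 on isoTOP-ABPP reactivity profile ratio, Q15084 C190: Heavy/light ratio DMSO over fragment-treated so higher means more cysteine engagement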
T3 sequence (Q15084 20-440): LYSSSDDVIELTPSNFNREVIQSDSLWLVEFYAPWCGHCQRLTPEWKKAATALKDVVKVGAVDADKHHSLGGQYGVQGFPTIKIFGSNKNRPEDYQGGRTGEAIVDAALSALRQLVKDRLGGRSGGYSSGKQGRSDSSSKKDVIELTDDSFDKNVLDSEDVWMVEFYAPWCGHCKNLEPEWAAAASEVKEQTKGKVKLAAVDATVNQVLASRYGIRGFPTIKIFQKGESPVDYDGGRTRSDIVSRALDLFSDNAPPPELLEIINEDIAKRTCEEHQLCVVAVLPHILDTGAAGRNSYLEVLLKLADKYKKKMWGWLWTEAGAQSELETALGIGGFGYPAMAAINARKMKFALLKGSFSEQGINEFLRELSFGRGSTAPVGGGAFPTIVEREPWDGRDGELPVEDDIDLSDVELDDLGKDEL

XPO1 C34 (O14980) = XPO1 C34 (O14980) (Homo sapiens, UniProt O14980); conditions: for R value (DMSO/fragment) / isoTOP-ABPP ratio, O14980_C34: 500 μM
XPO1 C34 (O14980), sequence (O14980 whole entry, the tested form may be a part): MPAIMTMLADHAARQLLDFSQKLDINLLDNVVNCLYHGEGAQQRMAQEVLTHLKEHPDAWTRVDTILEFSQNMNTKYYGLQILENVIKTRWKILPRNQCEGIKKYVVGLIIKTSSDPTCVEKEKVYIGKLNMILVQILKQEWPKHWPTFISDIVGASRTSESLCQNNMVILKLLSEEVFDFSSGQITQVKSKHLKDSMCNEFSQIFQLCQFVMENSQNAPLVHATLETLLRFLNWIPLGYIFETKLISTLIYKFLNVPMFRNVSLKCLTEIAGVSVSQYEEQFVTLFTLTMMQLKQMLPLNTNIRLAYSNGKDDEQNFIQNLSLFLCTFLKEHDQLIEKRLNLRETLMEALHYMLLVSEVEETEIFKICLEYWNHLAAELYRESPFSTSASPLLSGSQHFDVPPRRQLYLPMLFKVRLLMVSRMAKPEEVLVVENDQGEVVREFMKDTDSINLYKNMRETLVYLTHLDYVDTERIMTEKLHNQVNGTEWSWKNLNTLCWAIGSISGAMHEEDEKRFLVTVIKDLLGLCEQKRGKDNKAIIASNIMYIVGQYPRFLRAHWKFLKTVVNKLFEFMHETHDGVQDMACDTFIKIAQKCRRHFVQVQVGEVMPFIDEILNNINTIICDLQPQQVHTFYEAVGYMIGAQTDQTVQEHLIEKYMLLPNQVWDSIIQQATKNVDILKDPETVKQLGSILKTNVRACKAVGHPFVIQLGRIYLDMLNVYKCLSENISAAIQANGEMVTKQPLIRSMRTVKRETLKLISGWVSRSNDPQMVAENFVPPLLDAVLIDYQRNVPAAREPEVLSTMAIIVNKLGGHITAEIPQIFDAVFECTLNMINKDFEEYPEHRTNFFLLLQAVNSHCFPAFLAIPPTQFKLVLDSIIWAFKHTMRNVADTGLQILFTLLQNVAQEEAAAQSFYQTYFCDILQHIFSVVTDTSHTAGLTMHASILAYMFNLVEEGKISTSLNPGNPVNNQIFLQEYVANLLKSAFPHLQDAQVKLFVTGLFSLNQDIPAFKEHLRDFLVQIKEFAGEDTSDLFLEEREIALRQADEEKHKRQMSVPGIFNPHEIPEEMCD

SMARCC2 C145 (Q8TAQ2) = SMARCC2 C145 (Q8TAQ2) (Homo sapiens, UniProt Q8TAQ2); conditions: for R value (DMSO/fragment) / isoTOP-ABPP ratio Q8TAQ2_C145: 500 μM; for isoTOP-ABPP ratio (reactivity profile), Q8TAQ2_C145: 500 μm in-vitro ramos_231
SMARCC2 C145 (Q8TAQ2), sequence (Q8TAQ2 whole entry, the tested form may be a part): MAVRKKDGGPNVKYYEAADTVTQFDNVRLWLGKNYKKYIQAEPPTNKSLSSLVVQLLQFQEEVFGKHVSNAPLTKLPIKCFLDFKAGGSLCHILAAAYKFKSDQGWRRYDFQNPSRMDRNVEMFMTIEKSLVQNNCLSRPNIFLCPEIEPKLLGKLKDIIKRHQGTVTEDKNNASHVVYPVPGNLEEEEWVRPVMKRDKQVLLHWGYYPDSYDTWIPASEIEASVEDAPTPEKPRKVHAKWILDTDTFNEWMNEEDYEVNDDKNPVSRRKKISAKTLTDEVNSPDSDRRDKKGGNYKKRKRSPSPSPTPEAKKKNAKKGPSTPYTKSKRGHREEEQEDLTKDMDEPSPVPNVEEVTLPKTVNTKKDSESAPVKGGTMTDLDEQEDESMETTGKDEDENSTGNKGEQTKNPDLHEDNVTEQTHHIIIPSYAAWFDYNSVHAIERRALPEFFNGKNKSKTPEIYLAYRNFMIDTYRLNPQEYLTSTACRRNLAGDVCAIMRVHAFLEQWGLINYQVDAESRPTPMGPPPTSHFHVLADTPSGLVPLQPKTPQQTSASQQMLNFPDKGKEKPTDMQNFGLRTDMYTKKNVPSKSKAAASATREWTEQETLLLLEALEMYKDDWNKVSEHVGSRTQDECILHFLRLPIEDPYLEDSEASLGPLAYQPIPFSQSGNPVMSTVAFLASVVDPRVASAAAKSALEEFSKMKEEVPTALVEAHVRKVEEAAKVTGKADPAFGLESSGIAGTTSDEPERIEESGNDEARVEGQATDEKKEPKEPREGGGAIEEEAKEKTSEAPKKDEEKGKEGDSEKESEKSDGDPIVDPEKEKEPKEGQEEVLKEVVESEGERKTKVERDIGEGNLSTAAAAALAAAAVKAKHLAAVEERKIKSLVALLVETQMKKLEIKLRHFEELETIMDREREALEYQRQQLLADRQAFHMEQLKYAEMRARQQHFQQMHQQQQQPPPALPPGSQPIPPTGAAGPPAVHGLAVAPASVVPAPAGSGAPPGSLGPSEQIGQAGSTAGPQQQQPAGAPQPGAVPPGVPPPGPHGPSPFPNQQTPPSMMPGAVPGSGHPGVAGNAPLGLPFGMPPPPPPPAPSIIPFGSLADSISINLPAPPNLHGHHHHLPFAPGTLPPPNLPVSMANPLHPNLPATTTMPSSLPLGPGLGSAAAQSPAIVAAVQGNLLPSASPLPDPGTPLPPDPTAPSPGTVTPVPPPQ

ADA C75 (P00813) = target: T4, ADA C75 (P00813) (Homo sapiens, UniProt P00813); conditions: 500 μM, invitro, ramos
T4 sequence (P00813 1-363): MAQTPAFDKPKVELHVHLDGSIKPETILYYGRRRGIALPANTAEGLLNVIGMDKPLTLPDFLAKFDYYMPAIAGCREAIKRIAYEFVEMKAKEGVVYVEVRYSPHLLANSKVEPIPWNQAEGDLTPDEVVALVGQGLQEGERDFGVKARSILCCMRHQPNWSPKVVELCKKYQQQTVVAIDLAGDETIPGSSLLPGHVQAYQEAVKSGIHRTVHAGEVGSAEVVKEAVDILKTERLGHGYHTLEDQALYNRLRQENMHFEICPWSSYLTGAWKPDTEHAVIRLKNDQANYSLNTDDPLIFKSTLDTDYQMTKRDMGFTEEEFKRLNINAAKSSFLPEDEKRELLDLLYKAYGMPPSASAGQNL

DCUN1D1 C115 (Q96GG9) = DCUN1D1 C115 (Q96GG9) (Homo sapiens, UniProt Q96GG9); conditions: 500 μM, invitro, ramos
DCUN1D1 C115 (Q96GG9), sequence (Q96GG9 whole entry, the tested form may be a part): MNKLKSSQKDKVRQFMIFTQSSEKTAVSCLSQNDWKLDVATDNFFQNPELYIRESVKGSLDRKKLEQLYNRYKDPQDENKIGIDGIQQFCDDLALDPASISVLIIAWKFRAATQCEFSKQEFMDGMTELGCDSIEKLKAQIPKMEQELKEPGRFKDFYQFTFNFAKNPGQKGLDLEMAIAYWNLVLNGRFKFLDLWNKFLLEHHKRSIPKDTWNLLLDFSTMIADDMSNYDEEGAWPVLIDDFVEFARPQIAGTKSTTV

XPO1 C528 (O14980) = XPO1 C528 (O14980) (Homo sapiens, UniProt O14980); conditions: for R value (DMSO/fragment) / isoTOP-ABPP ratio O14980_C528: 500 μM; for isoTOP-ABPP ratio O14980_C528: 231
XPO1 C528 (O14980), sequence (O14980 whole entry, the tested form may be a part): as the sequence (O14980 whole entry, the tested form may be a part) above

STAT3 C259 (P40763) = STAT3 C259 (P40763) (Homo sapiens, UniProt P40763); conditions: for isoTOP-ABPP ratio (reactivity profile), P40763_C259: 500 μm in-vitro ramos_231
STAT3 C259 (P40763), sequence (P40763 whole entry): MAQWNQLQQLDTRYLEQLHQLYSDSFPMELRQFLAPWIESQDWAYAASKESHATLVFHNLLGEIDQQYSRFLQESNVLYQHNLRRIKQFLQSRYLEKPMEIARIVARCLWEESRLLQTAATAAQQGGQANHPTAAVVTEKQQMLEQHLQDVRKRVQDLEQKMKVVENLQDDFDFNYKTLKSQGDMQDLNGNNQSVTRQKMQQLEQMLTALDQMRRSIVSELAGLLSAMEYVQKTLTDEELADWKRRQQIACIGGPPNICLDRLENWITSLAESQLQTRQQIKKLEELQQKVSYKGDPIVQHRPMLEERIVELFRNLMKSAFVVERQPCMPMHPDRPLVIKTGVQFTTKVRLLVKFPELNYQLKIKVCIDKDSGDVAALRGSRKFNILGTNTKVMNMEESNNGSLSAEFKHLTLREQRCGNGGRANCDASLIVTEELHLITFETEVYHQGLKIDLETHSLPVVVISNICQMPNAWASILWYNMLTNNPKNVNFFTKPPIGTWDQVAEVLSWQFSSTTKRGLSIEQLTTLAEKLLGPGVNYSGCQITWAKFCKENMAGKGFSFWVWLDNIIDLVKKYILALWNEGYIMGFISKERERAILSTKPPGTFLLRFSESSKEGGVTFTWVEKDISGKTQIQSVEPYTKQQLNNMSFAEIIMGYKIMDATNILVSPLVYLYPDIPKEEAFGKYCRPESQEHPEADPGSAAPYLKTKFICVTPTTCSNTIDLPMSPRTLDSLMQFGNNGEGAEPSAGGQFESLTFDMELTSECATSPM

isoTOP-ABPP reactivity profile ratio, P24752_C126 (ACAT1 C126 (P24752); 500 μm, in-vitro_ramos_231): 0.8
isoTOP-ABPP reactivity profile ratio, P24752_C119 (ACAT1 C119 (P24752); 500 μm, in-vitro_ramos_231): 0.8
isoTOP-ABPP reactivity profile ratio, Q99873_C109 (PRMT1 C109 (Q99873); 500 μm, in-vitro_ramos_231): 0.8
isoTOP-ABPP reactivity profile ratio, Q15084_C190 (PDIA6 C190 (Q15084); 500 μm, in-vitro_ramos_231): 1.0
isoTOP-ABPP reactivity profile ratio, O14980_C34 (XPO1 C34 (O14980); 500 μm, in-vitro_ramos_231): 0.8
isoTOP-ABPP reactivity profile ratio, Q8TAQ2_C145 (SMARCC2 C145 (Q8TAQ2); 500 μm, in-vitro_ramos_231): 1.0
Compound: O=C(CCl)NC1C(O)OC(CO)C(O)C1O (mixture of isomers) [compound 44]

R value (DMSO/fragment) (ACAT1 C126 (P24752); 500 μM, in vitro, MDA-MB-231): 20.0
R value (DMSO/fragment) (ACAT1 C119 (P24752); in vitro, MDA-MB-231): 3.9
R value (DMSO/fragment) (ACAT1 C119 (P24752); invitro, ramos): 3.2
R value (DMSO/fragment) (PRMT1 C109 (Q99873); in vitro, MDA-MB-231): 3.1
R value (DMSO/fragment) (PRMT1 C109 (Q99873); invitro, ramos): 12.6
blockade of IA-alkyne labeling of C109 of PRMT1 (PRMT1 C109 (Q99873); competitive isoTOP-ABPP): blocking IA-alkyne labeling
R value (DMSO/fragment) (ADA C75 (P00813)): 7.3
R value (DMSO/fragment) (PDIA6 C190 (Q15084); 500 μM, invitro, ramos): 15.4
R value (DMSO/fragment) (XPO1 C34 (O14980); in vitro, MDA-MB-231): 2.8
R value (DMSO/fragment) (XPO1 C34 (O14980); invitro, ramos): 4.6
R value (DMSO/fragment) (DCUN1D1 C115 (Q96GG9)): 20.0
R value (DMSO/fragment) (SMARCC2 C145 (Q8TAQ2); in vitro, MDA-MB-231): 8.5
R value (DMSO/fragment) (SMARCC2 C145 (Q8TAQ2); invitro, ramos): 14.0
R value (DMSO/fragment) (XPO1 C528 (O14980); in vitro, MDA-MB-231): 4.9
R value (DMSO/fragment) (XPO1 C528 (O14980); invitro, ramos): 3.1
Compound: COc1ccc2c(c1)CCCN2C(=O)CCl [compound 2]

isoTOP-ABPP ratio, P24752_C126 (ACAT1 C126 (P24752); 500 μM, 231): 0.9
isoTOP-ABPP ratio, P24752_C126 (ACAT1 C126 (P24752); 500 μM, ramos): 1.3
isoTOP-ABPP ratio P24752_C119 (ACAT1 C119 (P24752); invitro, 231): 1.8
isoTOP-ABPP ratio P24752_C119 (ACAT1 C119 (P24752); invitro, ramos): 2.4
isoTOP-ABPP ratio, Q99873_C109 (PRMT1 C109 (Q99873); invitro, 231): 0.9
isoTOP-ABPP ratio, Q99873_C109 (PRMT1 C109 (Q99873); invitro, ramos): 1.3
isoTOP-ABPP ratio, P00813_C75 (ADA C75 (P00813)): 2.5
isoTOP-ABPP ratio, Q15084_C190 (PDIA6 C190 (Q15084); 500 μM, invitro, ramos): 1.7
isoTOP-ABPP ratio, O14980_C34 (XPO1 C34 (O14980); invitro, 231): 1.1
isoTOP-ABPP ratio, O14980_C34 (XPO1 C34 (O14980); invitro, ramos): 1.2
isoTOP-ABPP ratio Q8TAQ2_C145 (SMARCC2 C145 (Q8TAQ2); invitro, ramos): 2.8
isoTOP-ABPP ratio O14980_C528 (XPO1 C528 (O14980); invitro): 20.0
Compound: C=CC(=O)N(c1ccccc1)c1ccc(Br)cc1 [compound 5]

isoTOP-ABPP ratio, P24752_C126 (ACAT1 C126 (P24752); 500 μM, 231): 0.9
isoTOP-ABPP ratio P24752_C119 (ACAT1 C119 (P24752); invitro, 231): 1.1
isoTOP-ABPP ratio, Q99873_C109 (PRMT1 C109 (Q99873); invitro, 231): 1.1
isoTOP-ABPP ratio, P40763_C259 (STAT3 C259 (P40763); 500 μM, invitro, 231): 0.6
isoTOP-ABPP ratio, Q15084_C190 (PDIA6 C190 (Q15084); 500 μM, invitro, 231): 1.1
isoTOP-ABPP ratio, O14980_C34 (XPO1 C34 (O14980); invitro, 231): 1.2
isoTOP-ABPP ratio O14980_C528 (XPO1 C528 (O14980); invitro): 0.7
Compound: CNS(=O)(=O)C=Cc1ccc2c(ccn2Cc2ccccc2)c1 [compound 6]

isoTOP-ABPP ratio, P24752_C126 (ACAT1 C126 (P24752); 500 μM, 231): 1.0
isoTOP-ABPP ratio, P24752_C126 (ACAT1 C126 (P24752); 500 μM, ramos): 1.1
isoTOP-ABPP ratio P24752_C119 (ACAT1 C119 (P24752); invitro, 231): 1.0
isoTOP-ABPP ratio P24752_C119 (ACAT1 C119 (P24752); invitro, ramos): 0.7
isoTOP-ABPP ratio, Q99873_C109 (PRMT1 C109 (Q99873); invitro, 231): 1.4
isoTOP-ABPP ratio, Q99873_C109 (PRMT1 C109 (Q99873); invitro, ramos): 1.3
isoTOP-ABPP ratio, P00813_C75 (ADA C75 (P00813)): 0.7
isoTOP-ABPP ratio, Q15084_C190 (PDIA6 C190 (Q15084); 500 μM, invitro, ramos): 20.0
isoTOP-ABPP ratio, O14980_C34 (XPO1 C34 (O14980); invitro, 231): 1.2
isoTOP-ABPP ratio, O14980_C34 (XPO1 C34 (O14980); invitro, ramos): 0.7
isoTOP-ABPP ratio, Q96GG9_C115 (DCUN1D1 C115 (Q96GG9)): 0.6
isoTOP-ABPP ratio Q8TAQ2_C145 (SMARCC2 C145 (Q8TAQ2); invitro, 231): 2.8
isoTOP-ABPP ratio Q8TAQ2_C145 (SMARCC2 C145 (Q8TAQ2); invitro, ramos): 1.6
isoTOP-ABPP ratio O14980_C528 (XPO1 C528 (O14980); invitro): 1.1
Compound: O=C(CCl)NC(=O)NC12CC3CC(CC(C3)C1)C2 [compound 12]

isoTOP-ABPP ratio (reactivity profile), P24752_C126 (ACAT1 C126 (P24752); 500 μm in-vitro ramos_231): 0.9
isoTOP-ABPP ratio (reactivity profile), P24752_C119 (ACAT1 C119 (P24752); 500 μm in-vitro ramos_231): 1.0
isoTOP-ABPP ratio (reactivity profile), Q99873_C109 (PRMT1 C109 (Q99873); 500 μm in-vitro ramos_231): 1.0
isoTOP-ABPP ratio (reactivity profile), P40763_C259 (STAT3 C259 (P40763)): 0.9
isoTOP-ABPP ratio (reactivity profile), Q15084_C190 (PDIA6 C190 (Q15084)): 1.0
isoTOP-ABPP ratio (reactivity profile), O14980_C34 (XPO1 C34 (O14980); 500 μm in-vitro ramos_231): 0.9
isoTOP-ABPP ratio (reactivity profile), Q8TAQ2_C145 (SMARCC2 C145 (Q8TAQ2)): 0.9
Compound: CC(Cl)C(=O)Nc1cc(C(F)(F)F)cc(C(F)(F)F)c1 (stereo not shown) [compound 25]

isoTOP-ABPP ratio (reactivity profile), P24752_C126 (ACAT1 C126 (P24752); 500 μm in-vitro ramos): 0.8
isoTOP-ABPP ratio (reactivity profile), P24752_C126 (ACAT1 C126 (P24752); 500 μm in-vitro ramos_231): 1.1
isoTOP-ABPP ratio (reactivity profile), P24752_C119 (ACAT1 C119 (P24752); 500 μm in-vitro ramos): 0.6
isoTOP-ABPP ratio (reactivity profile), P24752_C119 (ACAT1 C119 (P24752); 500 μm in-vitro ramos_231): 1.3
isoTOP-ABPP ratio (reactivity profile), Q99873_C109 (PRMT1 C109 (Q99873); 500 μm in-vitro ramos): 0.9
isoTOP-ABPP ratio (reactivity profile), Q99873_C109 (PRMT1 C109 (Q99873); 500 μm in-vitro ramos_231): 1.0
isoTOP-ABPP ratio (reactivity profile), P40763_C259 (STAT3 C259 (P40763)): 1.5
isoTOP-ABPP ratio (reactivity profile), Q15084_C190 (PDIA6 C190 (Q15084)): 1.2
isoTOP-ABPP ratio (reactivity profile), O14980_C34 (XPO1 C34 (O14980); 500 μm in-vitro ramos): 0.9
isoTOP-ABPP ratio (reactivity profile), O14980_C34 (XPO1 C34 (O14980); 500 μm in-vitro ramos_231): 1.3
isoTOP-ABPP ratio (reactivity profile), Q8TAQ2_C145 (SMARCC2 C145 (Q8TAQ2)): 1.0
isoTOP-ABPP ratio (reactivity profile), O14980_C528 (XPO1 C528 (O14980); 500 μm in-vitro ramos_231): 1.0
Compound: O=C(CCl)N1CCN(CC(=O)N2CCOCC2)CC1 [compound 29]
